In article PMC5895880 (Frontiers in Pharmacology, 2018):
Each block holds one compound with its values, some of them ahead of it.

Experiments:
[1] = target: T1, mGluR5 (Rattus norvegicus, UniProt P31424); test: Calcium mobilization (intracellular calcium levels) in primary cultures of rat cortical astrocytes; type: cell-based; conditions: for EC50: GET73 0 (absence)
Procedure: The experiments have been performed on primary cultures of rat cortical astrocytes. These cells express mGlu5Rs ([Zhang et al., 2005]).
Primary cultures of cerebral cortical astrocytes were obtained from newborn rats (1 or 2 days old). Briefly, cerebral cortices were removed and dissociated by mild trypsinization at 37°C, followed by mechanical trituration to obtain single cells. Cells were suspended in the culture medium [Gibco® DMEM, 5% inactivated fetal bovine serum (Thermo-Fisher Scientific, Waltham, MA, United States), 100 IU/ml penicillin, and 100 μg/ml streptomycin (all from Sigma-Aldrich, Milan, Italy)] and then seeded in 75-cm^2 flasks at a density of 3 × 10^6 cells/flask. The cells were incubated at 37°C in a humidified atmosphere, 5% CO2/95% air. The culture medium was replaced after 24 h and again twice weekly until astrocytes were grown to form a monolayer firmly attached to the bottom of the flask (12 or 14 days after dissection). At cell confluence, flasks were vigorously shaken to separate astrocytes (which remained adherent in the bottom of the flasks) from microglia and oligodendrocytes (which floated on the supernatant) ([Tomasini et al., 2015]). Collected astrocytes were counted and then plated in poly-L-lysine at a density of 50,000 cells/well or 96-well plates black, clear bottom plates (Corning®; Sigma-Aldrich, Milan, Italy).
Subsequently 100 μl/well of the same buffer were added for 10 min. […] After placing cell culture and compound plates into the FlexStation II (Molecular Devices, Sunnyvale, CA, United States), the on-line additions were carried out in a volume of 50 μl /well and fluorescence changes were continuously measured for 2 min at 37°C.
(§1) EC50 values were calculated using non-linear regression [curve fit, log(agonist) vs. response, variable slope, four parameters]. Statistical analysis (F-test) has been performed by using GraphPad Prism 6.0 (GraphPad Software Inc., San Diego, CA, United States). Statistical differences between group means for EC50 values were also assessed by ANOVA followed by Tukey’s multiple comparisons test. Data are reported as mean ± SEM of three independent experiments. A p-value < 0.05 was considered statistically significant.

[2] = target: T1, mGluR5; test: Inositol phosphate (phosphatidylinositol) turnover in rat hippocampus slices; type: cell-based; conditions: for Effect on L-quisqualate concentration-response curve, phosphatidylinositol turnover / Effect on CHPG (10 mM)-induced increase in phosphatidylinositol turnover / Effect on glutamate concentration-response curve, phosphatidylinositol turnover / EC50: rat hippocampus slices; for EC50: read-out: EC50 of L-quisqualate, phosphatidylinositol turnover
Procedure: The experiments have been performed on rat hippocampus slices. This preparation expresses mGlu5Rs ([Zhang et al., 2005]; [Purgert et al., 2014]).
On the day of the experiment, the animals were euthanized, their brain promptly isolated and 400 μm thick slices (15–20 mg each) were obtained from both the left and right hippocampi, by using a McIlwain tissue Chopper fresh tissue. The tissue was then allowed to equilibrate for 20 min at room temperature in Krebs’ solution (composition in mM: NaCl 118; KC1 4.4; CaC1_2 1.2; MgS0_4 1.2; KH2P0_4 1.2; NaHC0_3 25; glucose 10) and gassed with a mixture of 95% O2 plus 5% CO2 ([Ferraro et al., 2011]).
Slices were placed in test tubes containing 0.3 ml of oxygenated Krebs solution with myo-[^3H]inositol 0.3 μM (NEN, Boston, MA, United States). […] The reaction was stopped by washing each slice in ice cold Krebs solution containing LiCl 10 mM and by plunging it in 0.94 ml of chloroform-methanol (1:2 v/v). After 10 min, 310 μl of chloroform and 310 μl of water were added and the tubes were shaken for 20 min. The separation of [^3H]inositol phosphates was performed by ion-exchange chromatography on AG 1-X8 resin, 200–400 mesh (Bio-Rad, Hercules, CA, United States), using different elution solutions. The collected IP3-containing fraction was mixed with Safety-Solve cocktail (RPI, Mount Prospect, IL, United States) and the radioactivity was measured by scintillation counting.
as §1

[3] = target: T1, mGluR5; test: pCREB (Ser133) levels in primary cultures of rat cortical neurons; type: cell-based; conditions: for EC50: rat cerebral cortex neurons
Procedure: The experiments have been performed on primary cultures of rat cortical neurons. These cells express mGlu5Rs ([Koga et al., 2010]).
Primary cultures of cerebral cortical neurons were prepared from 1-day-old rats. Cortices free of meninges were dissociated in 0.025% (w/v) trypsin at 37°C followed by mechanical repeated gentle pipetting through wide- and narrow-bore fire-polished Pasteur pipettes in culture medium [Neurobasal medium (Gibco, Grand Island, NY, United States) supplemented with 0.1 mM glutamine (Sigma-Aldrich, Milan, Italy), 10 μg/ml gentamicin (Sigma-Aldrich, Milan, Italy) and 2% B-27® Supplement (50X), serum free (Gibco, Grand Island, NY, United States)]. Cells were counted and then plated on poly-L-lysine (5 μg/ml)-coated multiwells. Cytosine arabinoside (10 μM; Sigma-Aldrich, Milan, Italy) was added within 24 h of plating to prevent glial cell proliferation. After 8 days of in vitro incubation (days in vitro: DIV), cultures were used for experiments.
pCREB measurement was performed with the pCREB (Ser133) Assay kit (PerkinElmer Italy, Milan). Briefly, cortical neurons were seeded in 96 well tissue culture plates at a density of 4,000 cells/well and incubated at 37°C overnight. […] The lysates were transferred to a 96-well ½AreaPlate^TM for the assay. The Acceptor Mix was added for 1 h at room temperature and the Donor mix was added to wells under subdue light and incubate for 1 h at room temperature. At the end of this period, raw “AlphaScreen Signal counts” were measured by an Alpha Technology®-compatible plate reader, using standard AlphaLISA settings (excitation 680 nm, emission 615 nm).
as §1

[4] = system: dopamine, serotonin, GABA, ionotropic glutamate receptors, dopamine and serotonin reuptake systems; set-up: method as in Loche et al., 2012; conditions: ref Loche et al., 2012; cited from earlier work
[5] = system: hippocampal neurons; set-up: method as in Tomasini et al., 2016; conditions: hippocampal neurons exposed to 0.1 to 10 μM; ref Tomasini et al., 2016; cited from earlier work
[6] = ref Haass-Koffler et al., cited from earlier work
[7] = system: alcohol intake; set-up: method as in Loche et al., 2012; Ferraro et al., 2013; conditions: preclinical studies; ref Loche et al., 2012; Ferraro et al., 2013; cited from earlier work
[8] = target: T1, mGluR5; set-up: method as in Bradley et al., 2011; conditions: ref Bradley et al., 2011; cited from earlier work
[9] = target: T1, mGluR5; set-up: method as in Bradley et al., 2011; conditions: ref Bradley et al., 2011; cited from earlier work; remark: listed apart in the source
[10] = system: mGluR5; set-up: method as in Nickols et al., 2016; conditions: ref Nickols et al., 2016; cited from earlier work
[11] = system: mGluR5; set-up: method as in Nickols et al., 2016; conditions: ref Nickols et al., 2016; cited from earlier work; remark: listed apart in the source

T1 sequence (P31424 21-875 limits assumed): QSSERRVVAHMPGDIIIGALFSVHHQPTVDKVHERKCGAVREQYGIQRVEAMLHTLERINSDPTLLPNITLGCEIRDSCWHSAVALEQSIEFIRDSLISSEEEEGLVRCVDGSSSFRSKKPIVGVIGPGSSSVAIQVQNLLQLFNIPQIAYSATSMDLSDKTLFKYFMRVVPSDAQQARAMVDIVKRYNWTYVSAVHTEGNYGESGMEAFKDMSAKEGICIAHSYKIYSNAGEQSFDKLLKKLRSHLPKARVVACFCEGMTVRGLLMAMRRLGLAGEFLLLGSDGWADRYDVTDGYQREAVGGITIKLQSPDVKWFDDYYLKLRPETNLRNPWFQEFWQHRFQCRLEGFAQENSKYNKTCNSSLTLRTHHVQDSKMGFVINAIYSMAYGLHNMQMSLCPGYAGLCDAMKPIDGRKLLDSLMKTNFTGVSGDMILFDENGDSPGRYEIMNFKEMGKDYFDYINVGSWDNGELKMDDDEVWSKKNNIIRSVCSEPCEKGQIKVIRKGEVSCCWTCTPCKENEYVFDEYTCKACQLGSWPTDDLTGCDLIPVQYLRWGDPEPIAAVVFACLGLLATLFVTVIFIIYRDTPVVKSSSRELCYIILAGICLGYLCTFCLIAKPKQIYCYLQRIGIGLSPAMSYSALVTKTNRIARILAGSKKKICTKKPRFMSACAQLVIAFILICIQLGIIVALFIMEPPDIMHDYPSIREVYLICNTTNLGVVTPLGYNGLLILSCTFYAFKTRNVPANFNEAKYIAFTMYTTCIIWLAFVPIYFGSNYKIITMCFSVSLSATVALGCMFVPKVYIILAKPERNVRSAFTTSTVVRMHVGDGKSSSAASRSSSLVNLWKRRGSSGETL

EC50 ([1]; read-out: EC50 of CHPG, intracellular calcium levels): 1300 ± 90 µM | Phosphatidylinositol turnover ([2]; CHPG at the higher concentration tested (10 mM), rat hippocampal slices, p < 0.05): 127 ± 4 % of basal levels | EC50 ([3]; GET73 0 (absence), read-out: EC50 of CHPG, pCREB levels): 1000 ± 90 µM | EC50 ([3]; in the presence of GET73 0.1 nM, read-out: EC50 of CHPG, pCREB levels): 1000 ± 80 µM | EC50 ([3]; in the presence of GET73 1 nM, read-out: EC50 of CHPG, pCREB levels): 900 ± 40 µM | EC50 ([3]; in the presence of GET73 10 nM, read-out: EC50 of CHPG, pCREB levels): 1400 ± 120 µM | EC50 ([3]; in the presence of GET73 100 nM, read-out: EC50 of CHPG, pCREB levels): 5000 ± 290 µM
Compound: NC(C(=O)O)c1cc(O)ccc1Cl (racemic) [CHPG, (RS)-2-Chloro-5-hydroxyphenylglycine]

Effect on CHPG concentration-response curve, intracellular calcium ([1]; GET73 0.1 nM–10 μM): significant rightward shift | Effect on L-quisqualate concentration-response curve, intracellular calcium ([1]; GET73 0.1 nM–10 μM): failed to significantly modify | Effect on glutamate concentration-response curve, intracellular calcium ([1]; GET73 10 nM–10 μM): significant rightward shift | Effect on glutamate concentration-response curve, intracellular calcium ([1]; GET73 0.1 and 1 nM): ineffective | Agonistic effect on intracellular calcium levels (calcium transient) ([1]; GET73 alone, 0.1 nM–10 μM): ineffective | Effect on L-quisqualate concentration-response curve, phosphatidylinositol turnover ([2]; GET73 10 nM–10 μM): significant rightward shift | Effect on CHPG (10 mM)-induced increase in phosphatidylinositol turnover ([2]; GET73 100 nM, 1 μM and 10 μM): significant reduction | Effect on glutamate concentration-response curve, phosphatidylinositol turnover ([2]; GET73 100 nM–10 μM): significant rightward shift | Effect on L-quisqualate concentration-response curve, phosphatidylinositol turnover ([2]; GET73 0.1 and 1 nM): ineffective | Effect on glutamate concentration-response curve, phosphatidylinositol turnover ([2]; GET73 0.1 and 1 nM): ineffective | Effect on CHPG (10 mM)-induced increase in phosphatidylinositol turnover ([2]; GET73 0.1–10 nM): ineffective | Agonistic effect on phosphatidylinositol turnover ([2]; GET73 alone, 0.1 nM–100 μM, rat hippocampal slices): failed to modify | Effect on glutamate concentration-response curve, pCREB ([3]; GET73 10 nM–10 μM, rat cortical neurons): significant rightward shift | Effect on CHPG concentration-response curve, pCREB ([3]; GET73 100 nM–10 μM, rat cortical neurons): significant rightward shift | Effect on glutamate concentration-response curve, pCREB ([3]; GET73 0.1 and 1 nM, rat cortical neurons): ineffective | Effect on CHPG concentration-response curve, pCREB ([3]; GET73 0.1–10 nM, rat cortical neurons): ineffective | Effect on L-quisqualate concentration-response curve, pCREB ([3]; GET73 0.1–100 nM, rat cortical neurons): ineffective | Effect on L-quisqualate concentration-response curve, pCREB ([3]; GET73 1 and 10 μM, rat cortical neurons): significant rightward shift | Agonistic effect on pCREB levels ([3]; GET73 alone, 0.1 nM–10 μM, rat cortical neurons): ineffective
Compound: COCCCC(=O)NCc1ccc(C(F)(F)F)cc1 [GET73, N-[4-(trifluoromethyl)benzyl]-4-methoxybutyramide]
Affinity for a series of biological targets [4]: did not show affinity | Neurotoxicity [5]: no signs of neurotoxicity | Safety and tolerability ([6]; Phase 1 clinical studies, healthy volunteers and alcohol-dependent patients, 2017a,b): safe and well-tolerated | CNS side effects ([6]; two Phase I clinical trials in healthy volunteers and ongoing Phase 1b/2a study in alcohol dependent subjects, 2017a): did not induce any CNS side effects | Alcohol intake [7]: reduce alcohol intake

Compound: N[C@@H](Cn1oc(=O)[nH]c1=O)C(=O)O [L-quisqualate, (L)-(+)-α-Amino-3,5-dioxo-1,2,4-oxadiazolidine-2-propanoic acid]
EC50 ([1]; read-out: EC50 of L-quisqualate, intracellular calcium levels): 0.0031 ± 0.00036 µM | EC50 ([2]; GET73 0 (absence)): 40 ± 2.37 µM | EC50 ([2]; in the presence of GET73 0.1 nM): 33 ± 1.57 µM | EC50 ([2]; in the presence of GET73 1 nM): 40 ± 1.44 µM | EC50 ([2]; in the presence of GET73 10 nM): 110 ± 9.5 µM | EC50 ([2]; in the presence of GET73 100 nM): 200 ± 11.1 µM | EC50 ([2]; in the presence of GET73 1 μM): 320 ± 15.7 µM | EC50 ([2]; in the presence of GET73 10 μM): 200 ± 12.6 µM | EC50 ([3]; GET73 0 (absence), read-out: EC50 of L-quisqualate, pCREB levels): 0.0088 ± 0.00068 µM | EC50 ([3]; in the presence of GET73 0.1 nM, read-out: EC50 of L-quisqualate, pCREB levels): 0.009 ± 0.00091 µM | EC50 ([3]; in the presence of GET73 1 nM, read-out: EC50 of L-quisqualate, pCREB levels): 0.0074 ± 0.00066 µM | EC50 ([3]; in the presence of GET73 10 nM, read-out: EC50 of L-quisqualate, pCREB levels): 0.0085 ± 0.00052 µM | EC50 ([3]; in the presence of GET73 100 nM, read-out: EC50 of L-quisqualate, pCREB levels): 0.011 ± 0.00096 µM | EC50 ([3]; in the presence of GET73 1 μM, read-out: EC50 of L-quisqualate, pCREB levels): 0.022 ± 0.00172 µM | EC50 ([3]; in the presence of GET73 10 μM, read-out: EC50 of L-quisqualate, pCREB levels): 0.016 ± 0.00044 µM

Compound: COc1cccc(C#Cc2ccc(C)cn2)c1 [M-5MPEP]
Inhibition of agonist-stimulated [3H]IP accumulation [8]: partially inhibiting | Inhibition of agonist-stimulated Ca++ oscillations [9]: completely blocking

Compound: CCN(CC)C(=O)c1ccc(C#Cc2cccc(F)c2)cn1 [VU0477573]
Inhibition of agonist-mediated intracellular Ca++ release [10]: only partially inhibited | Inhibition of ERK1/2 phosphorylation [11]: fully inhibited
